These compounds were tested against AAK1 (full length human) (Homo sapiens, UniProt Q2M2I8) (assay: HEK281 Cell-Based Assay (phospho-mu2 Western blot in HEK293F cells transfected with AAK1 and AP2M1)). Conditions: IC50 (nM), functional potency; inhibition of mu2 phosphorylation in HEK293F cells, 3 hours incubation, 5 concentrations.
Sequence of AAK1 (full length human) (Q2M2I8 1-863 isoform Q2M2I8-2): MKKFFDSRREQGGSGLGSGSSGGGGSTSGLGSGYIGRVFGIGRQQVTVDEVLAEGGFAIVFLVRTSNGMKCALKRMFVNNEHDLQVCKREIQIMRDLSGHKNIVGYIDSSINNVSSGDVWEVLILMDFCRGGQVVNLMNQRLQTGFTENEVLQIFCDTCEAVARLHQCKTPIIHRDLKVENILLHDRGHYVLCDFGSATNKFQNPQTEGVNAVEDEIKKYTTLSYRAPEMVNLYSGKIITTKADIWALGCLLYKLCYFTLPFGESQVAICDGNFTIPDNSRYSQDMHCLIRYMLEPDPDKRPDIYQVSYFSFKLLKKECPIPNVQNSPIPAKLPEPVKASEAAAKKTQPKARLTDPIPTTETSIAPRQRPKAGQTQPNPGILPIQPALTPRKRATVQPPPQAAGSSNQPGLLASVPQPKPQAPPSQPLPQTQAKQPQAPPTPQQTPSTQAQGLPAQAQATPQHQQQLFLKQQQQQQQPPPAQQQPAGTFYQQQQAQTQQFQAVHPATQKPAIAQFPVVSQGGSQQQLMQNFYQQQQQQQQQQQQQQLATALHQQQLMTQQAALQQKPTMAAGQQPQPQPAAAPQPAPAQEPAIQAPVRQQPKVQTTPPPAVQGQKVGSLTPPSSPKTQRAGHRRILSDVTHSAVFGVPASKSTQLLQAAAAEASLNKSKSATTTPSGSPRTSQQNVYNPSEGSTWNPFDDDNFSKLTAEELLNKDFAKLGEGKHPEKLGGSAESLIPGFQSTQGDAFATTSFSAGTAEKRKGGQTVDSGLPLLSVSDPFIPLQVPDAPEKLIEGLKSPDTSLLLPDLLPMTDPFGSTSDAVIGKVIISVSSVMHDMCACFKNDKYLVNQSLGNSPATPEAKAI

Compound | IC50
CCc1nc(C(C)CC(C)C)nc2ccc(-c3ccnc(NC)c3)cc12 (centres unmarked) [Example 67, 4-(4-Ethyl-2-(4-methylpentan-2-yl)quinazolin-6-yl)-N-methylpyridin-2-amine] | 1500 nM
CCc1nc(C(CN)CC(C)C)nc2ccc(-c3ccncc3)cc12 (centres unmarked) [Example 68, 2-(4-Ethyl-6-(pyridin-4-yl)quinazolin-2-yl)-4-methylpentan-1-amine] | 144 nM
CCc1nc(C(N)CCC(F)(F)F)nc2ccc(-c3ccncc3)cc12 (centres unmarked) [Example 69, 1-(4-Ethyl-6-(pyridin-4-yl)quinazolin-2-yl)-4,4,4-trifluorobutan-1-amine] | 32 nM
CCc1nc([C@H](N)CC2CC2)nc2ccc(-c3ccncc3)cc12 [Example 70, (R)-2-Cyclopropyl-1-(4-ethyl-6-(pyridin-4-yl)quinazolin-2-yl)ethanamine] | 126 nM
CCc1nc([C@H](N)C2CCCC2)nc2ccc(-c3ccncc3)cc12 [Example 71, (R)-Cyclopentyl(4-ethyl-6-(pyridin-4-yl)quinazolin-2-yl)methanamine] | 32 nM
CCc1nc([C@H](N)C2CCCCC2)nc2ccc(-c3ccncc3)cc12 [Example 72, (R)-Cyclohexyl(4-ethyl-6-(pyridin-4-yl)quinazolin-2-yl)methanamine] | 13 nM
CC(C)CC(N)c1nc(N2CCC2)c2cc(-c3ccncc3)ccc2n1 (centres unmarked) [Example 73, 1-(4-(Azetidin-1-yl)-6-(pyridin-4-yl)quinazolin-2-yl)-3-methylbutan-1-amine] | 44 nM
CC(C)CC(N)c1nc(N2CC2)c2cc(-c3ccncc3)ccc2n1 (centres unmarked) [Example 74, 1-(4-(Aziridin-1-yl)-6-(pyridin-4-yl)quinazolin-2-yl)-3-methylbutan-1-amine] | 263 nM
COc1cc2nc(CCC(C)C)nc(C)c2cc1-c1cnco1 [Example 75, 5-(2-Isopentyl-7-methoxy-4-methylquinazolin-6-yl)oxazole] | 590 nM
CC(C)CCc1nc(NCCO)c2cc(-c3cnco3)ccc2n1 [Example 76, 2-((2-Isopentyl-6-(oxazol-5-yl)quinazolin-4-yl)amino)ethanol] | 1810 nM

Continued, values first:

IC50 | Compound
3460 nM | COCCNc1nc(CCC(C)C)nc2ccc(-c3cnco3)cc12 [Example 77, 2-Isopentyl-N-(2-methoxyethyl)-6-(oxazol-5-yl)quinazolin-4-amine]
1090 nM | CC(C)CCc1nc(NCCN2CCCC2)c2cc(-c3cnco3)ccc2n1 [Example 78, 2-Isopentyl-6-(oxazol-5-yl)-N-(2-(pyrrolidin-1-yl)ethyl)quinazolin-4-amine]
6600 nM | Cc1cnc(CNc2nc(CCC(C)C)nc3ccc(-c4cnco4)cc23)cn1 [Example 79]
3320 nM | CC(C)CCc1nc(NCCCN(C)C)c2cc(-c3cnco3)ccc2n1 [Example 80, N^1-(2-Isopentyl-6-(oxazol-5-yl)quinazolin-4-yl)-N^3,N^3-dimethylpropane-1,3-diamine]
8610 nM | CC(C)CCc1nc(NCCN(C)C)c2cc(-c3cnco3)ccc2n1 [Example 81, N^1-(2-Isopentyl-6-(oxazol-5-yl)quinazolin-4-yl)-N^2,N^2-dimethylethane-1,2-diamine]
4620 nM | COC(=O)CCNc1nc(CCC(C)C)nc2ccc(-c3cnco3)cc12 [Example 82, Methyl 3-((2-isopentyl-6-(oxazol-5-yl)quinazolin-4-yl)amino)propanoate]
812 nM | CC(C)CCc1nc(N2CCC2)c2cc(-c3cnco3)ccc2n1 [Example 83, 5-(4-(Azetidin-1-yl)-2-isopentylquinazolin-6-yl)oxazole]
2580 nM | CC(C)CCc1nc(NC2CC2)c2cc(-c3cnco3)ccc2n1 [Example 84, N-Cyclopropyl-2-isopentyl-6-(oxazol-5-yl)quinazolin-4-amine]
24 nM | CCc1nc(C(N)CC(C)C)nc2cc(OC)c(-c3cnco3)cc12 (centres unmarked) [Example 85, 1-(4-Ethyl-7-methoxy-6-(oxazol-5-yl)quinazolin-2-yl)-3-methylbutan-1-amine]
932 nM | CCc1nc(C(N)CC(C)C)nc2cc(OC)c(-c3ccncc3)cc12 (centres unmarked) [Example 88, 1-(4-Ethyl-7-methoxy-6-(pyridin-4-yl)quinazolin-2-yl)-3-methylbutan-1-amine]
